pIC50: −log10 of the molar value.

Test [1] addresses Serine/threonine-protein kinase PLK3 (Homo sapiens, UniProt Q9H4B4). The test can be described thus: Selectivity interaction (KinomeScan (DiscoverX)) EUB0000595a PLK3. The note with it: at 10 µM.
Test [2] addresses T1, Phosphatidylinositol 5-phosphate 4-kinase type-2 beta (Homo sapiens) (UniProt P78356).
T1 sequence (whole entry): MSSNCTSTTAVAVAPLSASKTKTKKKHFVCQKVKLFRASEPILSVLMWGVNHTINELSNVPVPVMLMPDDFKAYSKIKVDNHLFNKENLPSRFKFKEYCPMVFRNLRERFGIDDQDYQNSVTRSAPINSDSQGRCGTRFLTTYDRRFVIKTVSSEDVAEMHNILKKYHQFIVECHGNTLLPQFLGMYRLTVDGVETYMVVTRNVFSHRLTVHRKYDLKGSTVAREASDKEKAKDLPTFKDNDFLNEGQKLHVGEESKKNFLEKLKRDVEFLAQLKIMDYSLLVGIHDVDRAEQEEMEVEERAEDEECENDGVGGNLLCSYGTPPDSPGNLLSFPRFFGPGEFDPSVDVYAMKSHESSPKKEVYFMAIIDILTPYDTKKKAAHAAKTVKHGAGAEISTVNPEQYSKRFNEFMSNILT
The experiment in a line: Selectivity interaction (KinomeScan (DiscoverX)) EUB0001619a PIP4K2B. The note with it: at 1 µM.

Test [3] deals with Eukaryotic translation initiation factor 2-alpha kinase 1 (Homo sapiens) (UniProt Q9BQI3). The experiment in a line: Selectivity interaction (KinomeScan (DiscoverX)) EUB0001619a EIF2AK1. The note with it: at 1 µM.
Sequence of Eukaryotic translation initiation factor 2-alpha kinase 1 (Homo sapiens) (Q9BQI3 whole entry): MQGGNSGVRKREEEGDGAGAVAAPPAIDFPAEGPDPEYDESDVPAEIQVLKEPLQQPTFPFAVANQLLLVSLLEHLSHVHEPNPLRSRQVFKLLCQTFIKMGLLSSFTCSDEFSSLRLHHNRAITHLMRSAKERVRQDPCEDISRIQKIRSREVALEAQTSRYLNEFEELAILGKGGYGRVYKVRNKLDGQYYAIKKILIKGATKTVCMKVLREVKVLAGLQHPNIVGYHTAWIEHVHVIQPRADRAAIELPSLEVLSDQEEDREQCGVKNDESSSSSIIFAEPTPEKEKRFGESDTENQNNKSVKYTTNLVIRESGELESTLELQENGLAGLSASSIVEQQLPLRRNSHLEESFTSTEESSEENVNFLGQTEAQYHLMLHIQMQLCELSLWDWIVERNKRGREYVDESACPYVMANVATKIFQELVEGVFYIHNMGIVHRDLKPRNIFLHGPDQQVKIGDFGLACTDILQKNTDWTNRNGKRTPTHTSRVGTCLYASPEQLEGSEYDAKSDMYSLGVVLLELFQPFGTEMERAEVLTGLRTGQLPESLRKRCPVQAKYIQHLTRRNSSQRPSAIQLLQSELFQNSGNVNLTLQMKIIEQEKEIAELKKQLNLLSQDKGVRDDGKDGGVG
Test [4] concerns the target Dual specificity tyrosine-phosphorylation-regulated kinase 1B (Homo sapiens, UniProt Q9Y463). The note with it: at 10 µM.
Test [5] has as its target Serine/threonine-protein kinase WNK1 (Homo sapiens) (UniProt Q9H4A3). The experiment in a line: Selectivity interaction (KinomeScan (DiscoverX)) EUB0000666a WNK1. The note with it: at 10 µM.
Test [6] has as its target T2, Cytoplasmic tyrosine-protein kinase BMX (Homo sapiens) (UniProt P51813).
T2 sequence (whole entry): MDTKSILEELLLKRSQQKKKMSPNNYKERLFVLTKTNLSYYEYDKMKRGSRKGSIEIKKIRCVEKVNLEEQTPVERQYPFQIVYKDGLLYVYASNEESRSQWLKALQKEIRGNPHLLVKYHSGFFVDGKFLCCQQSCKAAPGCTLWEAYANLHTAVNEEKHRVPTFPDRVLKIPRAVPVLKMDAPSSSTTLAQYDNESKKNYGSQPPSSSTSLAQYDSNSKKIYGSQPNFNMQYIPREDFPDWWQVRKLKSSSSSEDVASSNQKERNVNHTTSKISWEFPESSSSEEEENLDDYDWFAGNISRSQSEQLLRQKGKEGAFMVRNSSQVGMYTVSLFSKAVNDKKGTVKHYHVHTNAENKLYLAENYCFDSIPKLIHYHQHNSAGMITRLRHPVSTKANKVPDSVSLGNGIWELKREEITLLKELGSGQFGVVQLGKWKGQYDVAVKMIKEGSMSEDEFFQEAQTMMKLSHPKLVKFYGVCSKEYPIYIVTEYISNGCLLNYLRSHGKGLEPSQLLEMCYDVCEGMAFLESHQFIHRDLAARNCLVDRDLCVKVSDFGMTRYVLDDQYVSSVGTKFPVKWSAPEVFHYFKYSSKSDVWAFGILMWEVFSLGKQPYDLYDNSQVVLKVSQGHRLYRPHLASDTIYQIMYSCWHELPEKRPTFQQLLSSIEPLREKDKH
The test can be described thus: Selectivity interaction (SelectScreen profiling (Invitrogen)) EUB0000607a BMX. The note with it: at 2 µM.

Test [7] addresses Ribosomal protein S6 kinase alpha-1 (Homo sapiens, UniProt Q15418). The experiment in a line: Selectivity interaction (Ambit KINOMEscan and KiNATiv profiling in Jurkat cells) EUB0000090b RPS6KA1. The class given is cell-based. The note with it: at 1 µM.
Test [8] deals with Serine/threonine-protein kinase 10 (Homo sapiens) (UniProt O94804). The test can be described thus: Selectivity interaction (KinomeScan (DiscoverX)) EUB0001049a STK10. The note with it: at 1 µM.
Sequence of Serine/threonine-protein kinase 10 (Homo sapiens) (O94804 whole entry, looked up): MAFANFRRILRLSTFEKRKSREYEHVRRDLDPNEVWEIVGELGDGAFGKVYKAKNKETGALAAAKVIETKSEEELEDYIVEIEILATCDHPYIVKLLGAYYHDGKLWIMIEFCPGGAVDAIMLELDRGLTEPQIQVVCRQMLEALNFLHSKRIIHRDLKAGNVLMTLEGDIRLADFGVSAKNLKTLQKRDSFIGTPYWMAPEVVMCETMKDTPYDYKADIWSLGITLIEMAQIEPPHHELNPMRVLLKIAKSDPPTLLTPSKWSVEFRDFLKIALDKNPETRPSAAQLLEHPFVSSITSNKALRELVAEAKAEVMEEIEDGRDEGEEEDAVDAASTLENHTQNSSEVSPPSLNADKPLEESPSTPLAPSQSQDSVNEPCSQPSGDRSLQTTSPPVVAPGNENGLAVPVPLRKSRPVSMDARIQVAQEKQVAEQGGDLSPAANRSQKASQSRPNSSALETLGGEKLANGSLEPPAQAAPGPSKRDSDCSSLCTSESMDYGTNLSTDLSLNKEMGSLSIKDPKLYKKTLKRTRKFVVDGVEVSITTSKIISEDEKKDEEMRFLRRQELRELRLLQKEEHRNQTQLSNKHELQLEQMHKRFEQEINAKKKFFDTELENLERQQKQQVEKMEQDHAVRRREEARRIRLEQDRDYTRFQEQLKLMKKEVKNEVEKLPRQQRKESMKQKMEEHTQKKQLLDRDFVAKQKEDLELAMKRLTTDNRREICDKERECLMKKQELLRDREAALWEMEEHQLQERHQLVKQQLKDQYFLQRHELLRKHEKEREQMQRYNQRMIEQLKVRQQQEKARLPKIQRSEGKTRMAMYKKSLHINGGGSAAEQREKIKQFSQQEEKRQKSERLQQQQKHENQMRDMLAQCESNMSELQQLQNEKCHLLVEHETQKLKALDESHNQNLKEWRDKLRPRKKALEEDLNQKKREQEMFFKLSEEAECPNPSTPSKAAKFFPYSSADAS
Test [9] concerns the target T3, Dual specificity tyrosine-phosphorylation-regulated kinase 2 (Homo sapiens, UniProt Q92630).
T3 sequence (Q92630 whole entry): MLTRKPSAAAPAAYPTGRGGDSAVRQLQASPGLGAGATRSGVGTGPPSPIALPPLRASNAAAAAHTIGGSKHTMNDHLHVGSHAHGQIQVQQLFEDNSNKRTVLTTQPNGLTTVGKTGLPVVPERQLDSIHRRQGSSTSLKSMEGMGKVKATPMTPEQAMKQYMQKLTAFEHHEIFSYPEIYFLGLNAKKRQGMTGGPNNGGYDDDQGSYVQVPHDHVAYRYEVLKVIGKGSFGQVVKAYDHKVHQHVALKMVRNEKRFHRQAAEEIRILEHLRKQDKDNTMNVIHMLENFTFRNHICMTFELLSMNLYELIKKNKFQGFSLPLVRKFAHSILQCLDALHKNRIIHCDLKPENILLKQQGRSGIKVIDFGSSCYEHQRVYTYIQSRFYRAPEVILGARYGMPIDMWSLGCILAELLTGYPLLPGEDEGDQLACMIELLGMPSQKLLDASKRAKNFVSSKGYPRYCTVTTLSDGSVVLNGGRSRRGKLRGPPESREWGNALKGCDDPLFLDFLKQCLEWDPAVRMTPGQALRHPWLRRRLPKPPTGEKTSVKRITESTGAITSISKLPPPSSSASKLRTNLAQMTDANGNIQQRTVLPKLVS
The experiment in a line: Selectivity interaction (Enzymatic assay (Eurofins)) EUB0001049a DYRK2.

Test [10] has as its target T4, Activin receptor type-1B (Homo sapiens) (UniProt P36896).
T4 sequence (whole entry): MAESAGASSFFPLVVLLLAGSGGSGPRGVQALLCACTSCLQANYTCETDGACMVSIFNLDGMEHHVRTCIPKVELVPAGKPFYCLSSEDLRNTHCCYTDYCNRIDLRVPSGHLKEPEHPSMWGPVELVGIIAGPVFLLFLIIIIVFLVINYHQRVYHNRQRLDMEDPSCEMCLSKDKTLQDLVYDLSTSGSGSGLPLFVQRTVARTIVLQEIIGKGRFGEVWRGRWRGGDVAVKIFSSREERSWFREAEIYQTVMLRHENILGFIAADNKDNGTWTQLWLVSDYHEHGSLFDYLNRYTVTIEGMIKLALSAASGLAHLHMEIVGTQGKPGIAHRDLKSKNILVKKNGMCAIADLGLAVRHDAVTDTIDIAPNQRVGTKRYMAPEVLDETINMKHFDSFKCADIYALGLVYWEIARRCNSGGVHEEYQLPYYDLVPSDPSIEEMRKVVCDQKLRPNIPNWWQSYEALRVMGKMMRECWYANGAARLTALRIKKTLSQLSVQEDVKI
The test can be described thus: Selectivity interaction (KinomeScan (DiscoverX)) EUB0000618a ACVR1B. The note with it: at 10 µM.

In test [11] the target is Death-associated protein kinase 1 (Homo sapiens, UniProt P53355). The experiment in a line: Selectivity interaction (KinomeScan (DiscoverX)) EUB0001079a DAPK1. The note with it: at 1 µM.
Sequence of Death-associated protein kinase 1 (P53355 whole entry, looked up): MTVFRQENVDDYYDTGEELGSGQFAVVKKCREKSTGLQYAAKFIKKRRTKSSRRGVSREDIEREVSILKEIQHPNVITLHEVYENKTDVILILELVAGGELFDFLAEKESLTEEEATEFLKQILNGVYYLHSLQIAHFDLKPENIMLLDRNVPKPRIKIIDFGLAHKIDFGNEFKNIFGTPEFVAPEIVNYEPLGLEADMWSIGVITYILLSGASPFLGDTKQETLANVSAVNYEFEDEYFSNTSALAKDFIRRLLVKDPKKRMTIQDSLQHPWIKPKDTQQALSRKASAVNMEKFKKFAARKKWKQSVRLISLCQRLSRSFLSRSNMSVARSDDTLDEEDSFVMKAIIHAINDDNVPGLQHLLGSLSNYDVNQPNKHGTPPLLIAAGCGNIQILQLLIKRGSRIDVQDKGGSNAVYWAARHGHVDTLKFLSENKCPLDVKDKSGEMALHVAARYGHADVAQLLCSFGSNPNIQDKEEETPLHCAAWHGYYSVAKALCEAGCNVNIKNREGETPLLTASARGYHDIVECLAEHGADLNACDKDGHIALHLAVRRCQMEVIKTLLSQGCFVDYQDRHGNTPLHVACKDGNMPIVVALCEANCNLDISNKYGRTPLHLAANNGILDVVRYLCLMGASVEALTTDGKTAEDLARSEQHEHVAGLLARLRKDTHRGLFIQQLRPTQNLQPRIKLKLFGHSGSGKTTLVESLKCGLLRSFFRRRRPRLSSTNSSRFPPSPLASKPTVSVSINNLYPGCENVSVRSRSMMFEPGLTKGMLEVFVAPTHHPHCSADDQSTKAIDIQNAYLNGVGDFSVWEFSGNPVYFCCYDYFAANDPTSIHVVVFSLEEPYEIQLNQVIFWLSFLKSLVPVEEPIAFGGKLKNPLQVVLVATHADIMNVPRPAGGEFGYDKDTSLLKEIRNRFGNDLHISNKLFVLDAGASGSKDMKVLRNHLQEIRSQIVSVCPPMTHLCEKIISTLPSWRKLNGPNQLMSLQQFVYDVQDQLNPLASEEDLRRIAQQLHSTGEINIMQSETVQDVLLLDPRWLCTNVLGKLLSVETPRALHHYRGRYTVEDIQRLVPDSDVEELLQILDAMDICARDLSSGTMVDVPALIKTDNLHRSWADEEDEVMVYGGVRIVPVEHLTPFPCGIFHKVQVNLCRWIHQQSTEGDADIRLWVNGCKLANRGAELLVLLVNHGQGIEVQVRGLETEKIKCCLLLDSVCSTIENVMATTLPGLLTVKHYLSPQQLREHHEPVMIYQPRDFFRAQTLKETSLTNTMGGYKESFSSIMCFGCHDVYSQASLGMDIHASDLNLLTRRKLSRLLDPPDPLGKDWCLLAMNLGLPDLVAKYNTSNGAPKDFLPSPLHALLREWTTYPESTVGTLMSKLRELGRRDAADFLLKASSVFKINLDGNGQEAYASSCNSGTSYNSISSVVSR

Sequence of Dual specificity tyrosine-phosphorylation-regulated kinase 1B (Q9Y463 whole entry, looked up): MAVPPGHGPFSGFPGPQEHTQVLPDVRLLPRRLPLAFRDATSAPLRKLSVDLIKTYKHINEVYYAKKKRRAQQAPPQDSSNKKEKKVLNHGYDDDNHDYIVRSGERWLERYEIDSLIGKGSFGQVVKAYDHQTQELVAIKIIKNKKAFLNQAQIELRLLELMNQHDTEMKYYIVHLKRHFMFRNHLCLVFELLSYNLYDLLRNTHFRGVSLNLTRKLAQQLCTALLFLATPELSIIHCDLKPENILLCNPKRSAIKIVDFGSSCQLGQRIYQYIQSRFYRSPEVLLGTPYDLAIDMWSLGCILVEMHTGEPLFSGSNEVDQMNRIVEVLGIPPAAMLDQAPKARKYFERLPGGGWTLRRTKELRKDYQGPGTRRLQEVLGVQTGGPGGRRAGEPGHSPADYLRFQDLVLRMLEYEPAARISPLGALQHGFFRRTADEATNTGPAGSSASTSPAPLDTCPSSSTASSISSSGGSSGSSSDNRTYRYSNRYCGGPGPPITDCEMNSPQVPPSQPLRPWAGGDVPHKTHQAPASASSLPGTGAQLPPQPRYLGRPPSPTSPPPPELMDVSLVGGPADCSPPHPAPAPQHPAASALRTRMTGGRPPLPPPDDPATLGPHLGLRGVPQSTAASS
Sequence of Ribosomal protein S6 kinase alpha-1 (Q15418 whole entry): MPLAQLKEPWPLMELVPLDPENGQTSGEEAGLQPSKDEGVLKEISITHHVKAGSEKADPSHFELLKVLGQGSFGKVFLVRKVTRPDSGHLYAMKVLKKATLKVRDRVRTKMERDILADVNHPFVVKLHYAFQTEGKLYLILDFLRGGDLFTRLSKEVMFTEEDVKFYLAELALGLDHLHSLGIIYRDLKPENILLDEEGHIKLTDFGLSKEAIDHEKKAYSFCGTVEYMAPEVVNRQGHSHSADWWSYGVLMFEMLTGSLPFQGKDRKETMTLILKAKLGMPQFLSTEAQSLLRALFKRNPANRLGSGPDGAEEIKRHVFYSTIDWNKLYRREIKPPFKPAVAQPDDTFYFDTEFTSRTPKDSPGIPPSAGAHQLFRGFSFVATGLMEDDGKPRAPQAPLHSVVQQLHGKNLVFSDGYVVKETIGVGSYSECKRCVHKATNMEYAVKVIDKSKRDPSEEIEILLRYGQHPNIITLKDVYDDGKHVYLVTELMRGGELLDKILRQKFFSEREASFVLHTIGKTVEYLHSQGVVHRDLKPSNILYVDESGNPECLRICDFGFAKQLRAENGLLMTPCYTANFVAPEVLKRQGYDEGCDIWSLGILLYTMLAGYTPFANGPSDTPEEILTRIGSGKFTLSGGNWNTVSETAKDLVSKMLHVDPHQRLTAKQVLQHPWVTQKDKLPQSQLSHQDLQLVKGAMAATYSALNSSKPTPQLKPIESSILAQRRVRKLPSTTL
Sequence of Serine/threonine-protein kinase PLK3 (Q9H4B4 whole entry, looked up): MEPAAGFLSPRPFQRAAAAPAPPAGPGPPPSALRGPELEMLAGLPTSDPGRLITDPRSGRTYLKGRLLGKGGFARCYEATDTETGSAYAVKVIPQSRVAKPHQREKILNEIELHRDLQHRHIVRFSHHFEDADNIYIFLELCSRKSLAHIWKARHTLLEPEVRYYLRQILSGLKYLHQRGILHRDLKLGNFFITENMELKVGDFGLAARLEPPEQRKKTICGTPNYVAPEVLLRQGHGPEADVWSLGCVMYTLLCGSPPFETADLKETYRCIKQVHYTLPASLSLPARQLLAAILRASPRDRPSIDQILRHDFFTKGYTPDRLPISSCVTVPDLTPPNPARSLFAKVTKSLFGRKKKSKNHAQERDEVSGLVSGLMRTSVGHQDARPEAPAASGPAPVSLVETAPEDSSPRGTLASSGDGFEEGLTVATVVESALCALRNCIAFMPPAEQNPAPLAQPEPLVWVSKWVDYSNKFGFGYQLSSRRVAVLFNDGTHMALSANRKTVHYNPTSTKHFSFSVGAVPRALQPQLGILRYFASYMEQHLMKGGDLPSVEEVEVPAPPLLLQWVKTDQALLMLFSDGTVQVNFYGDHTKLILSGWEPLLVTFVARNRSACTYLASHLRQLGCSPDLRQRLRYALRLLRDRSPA

Turning to `COCC(=O)NC/C=C/c1ccc2ncnc(Nc3ccc(Oc4ccc(C)nc4)c(C)c3)c2c1` [CP-724714], in test [1], the % of control is 99%.

As for `N#Cc1cccc(-c2c[nH]c3ncnc(N4CCOCC4)c23)c1`, the % of control in test [2] was 23%; in [3] it was 100%.

`CCN(CC)CCCCNc1ncc2cc(-c3cc(OC)cc(OC)c3)c(NC(=O)NC(C)(C)C)nc2n1` registered a % of control in test [4] of 100%.

On to `O=C(NOC[C@H](O)CO)c1ccc(F)c(F)c1Nc1ccc(I)cc1F`, for which, in test [5], the % of control came out at 92%.

On to `CNC(=O)Nc1ccc(-c2nc(N3CC4CCC(C3)O4)c3cnn(C4CCC5(CC4)OCCO5)c3n2)cc1`, for which, in test [6], the % of inhibition was 10%.

For `CN(C)C/C=C/C(=O)Nc1ccc(C(=O)N2CCCC(Nc3ncc(Cl)c(-c4c[nH]c5ccccc45)n3)C2)cc1` (stereo unspecified), in test [7], the % of control is 14%.

In test [8], `COc1cc(Nc2nc(C)cc(-c3cnn4nc(OC)ccc34)n2)cc(C(F)(F)F)c1` came in with a % of control of 86%. In addition, the pIC50 (usually the IC50 on a negative log10 scale, so that one unit is a factor of ten) in test [9] is less than 5.00.

`O[C@H]1CC[C@H](Nc2ncc3nc(Nc4c(F)cc(F)cc4F)n([C@H]4CCOC4)c3n2)CC1` came in with a % of control in test [10] of 99%.

`Nc1cnc(N2CCc3cc(S(=O)(=O)Nc4c(F)cc(Cl)cc4F)cc(N4CCCC4=O)c32)nc1` [TP-020n] had a % of control in test [11] of 100%.

(Values after ChEMBL document CHEMBL5465560, “Selectivity Literature for EUbOPEN Chemogenomic Library” (2024).)
